According to US4327085A, “Biologically active compositions and methods of use” (Agence National de Valorisation de la Recherache (ANVAR), priority 1973, dated 1982):

How the values were obtained:
[1] = tested on: Klebsiella pneumoniae, strain of capsular type 2, biotype d; experiment: Anti-infectious protection of mice against Klebsiella pneumoniae infection; assay type: in vivo, hybrid mice (C57B1/6×AKR)F1; conditions: compound iv. 100 μg at -24 h; for % protection: difference of % survivors vs controls
[2] = tested on: bovine serum albumin (BSA) antigen; experiment: Adjuvant activity in aqueous phase: anti-albumin antibody rate by passive hemagglutination; assay type: in vivo, Swiss mice; conditions: S.C., 100 μg with BSA 0.5 mg/animal in isotonic saline
Procedure: In the series of tests of which the results are indicated hereafter, the influence of the active principle according to the invention was assessed as bearing on the anti-albumin antibody rate, particularly under the following conditions.
Groups of 8 two-month-old Swiss mice received by subcutaneous injection (SC) or orally (PO) 0.5 mg of antigen constituted by the bovine serum albumin (BSA) with or without the substance tested in an isotonic saline solution. This large dose of antigen, because of its closeness to the limit paralysing dose with respect to the immunising response, elicits but a weak or no immune response in the controls; it therefore constitutes a severe criterion for showing the activity of an adjuvant substance. Thirty days later, the mice received, by the same method of administration, a further dose containing 0.1 mg of the same antigen.
The proportion of antibody was determined by passive hemagglutination by using sheep red blood cells treated with formalin and coated with the antigen studied according to the method described by A. A. HIRATA and M. W. […] (J. Immunol., 100, 641-648, 1968). Blood samples were taken 14, 28, 34 and 36 days after the first injection.

SMILES	% survival D + 3 ([1]; K. pneumoniae im. 2 × 10^4) [%]	% survival D + 5 ([1]; K. pneumoniae im. 2 × 10^4) [%]	% survival D + 10 ([1]; K. pneumoniae im. 2 × 10^4) [%]	% protection ([1]; K. pneumoniae im. 2 × 10^4) [%]	% survival D + 3 ([1]; K. pneumoniae im. 1,5 × 10^4) [%]	% survival D + 5 ([1]; K. pneumoniae im. 1,5 × 10^4) [%]	% survival D + 10 ([1]; K. pneumoniae im. 1,5 × 10^4) [%]	% protection ([1]; K. pneumoniae im. 1,5 × 10^4) [%]	Titer of antibody 28th day [2]
CC(=O)N[C@H]1C(O)O[C@H](COC(C)=O)[C@@H](OC(C)=O)[C@@H]1O[C@H](C)C(=O)N[C@@H](C)C(=O)N[C@H](CCC(=O)O)C(N)=O (stereo partly drawn) [4,6-di-O-acetyl--Mur--NAc--L--Ala--D--Glu(OH)--NH2]	97	84	63	47	–	–	–	–	–
CC(=O)N[C@H]1C(O)O[C@H](COC(=O)CCC(=O)O)[C@@H](O)[C@@H]1O[C@H](C)C(=O)N[C@@H](C)C(=O)N[C@H](CCC(=O)O)C(N)=O (stereo partly drawn) [6-O-succinyl-Mur-NAc--L--Ala--D--Glu,(OH)--NH2]	100	91	63	44	–	–	–	–	–
CC(=O)N[C@@H]1[C@@H](O[C@H](C)C(=O)N[C@@H](C)C(=O)N[C@H](CCC(=O)O)C(N)=O)[C@H](O)[C@@H](CO)O[C@H]1O [Mur--NAc--L-Ala--D-Glu(OH)--NH2, Mur--NAc--L--Ala--D--Glu(OH)--NH2, reference compound]	–	–	–	–	83	66	60	47	25
CC(=O)N[C@H]1C(O)O[C@H](CO)[C@@H](O)[C@@H]1OCC(=O)N[C@@H](C)C(=O)N[C@H](CCC(=O)O)C(N)=O (stereo partly drawn) [norMur--NAc--L-Ala--D-Glu(OH)--NH2, 2(2-acetamido-2-deoxy-3-O-D-glucopyranosyl)-acetyl-L-alanyl-D-isoglutamine]	–	–	–	–	78	64	60	47	25
